Source: PubChem BioAssay AID652026 (The Scripps Research Institute Molecular Screening Center, 2013)
The source made the active and inactive calls.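 Rule for the calls: active = STAT5 reporter signal fold change below 0.5 at a 10 µM dose; inactive = the rest.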

These molecules were tested on T47D STAT5-luciferase reporter, prolactin-induced, luminescence (assay: reduction of prolactin-induced STAT5 luciferase – cell-based, luminescence, T47D, assay provider, late-stage follow-up (AID 652026)). Settings: at 10 µM; active compounds read low.

| SMILES | fold change |
| --- | --- |
| CCOC(=O)C1CCCN(CC(=O)/C=C2/N(C)c3ccccc3C2(C)C)C1 (stereo not given) | 0.856 (inactive) |
| O=C(C[n+]1ccc2ccccc2c1)c1ccccc1 | 0.909 (inactive) |
| Cc1cc[n+](CC(=O)/C=C2\N(C)c3ccccc3C2(C)C)c(C)c1 | 0.67 (inactive) |
| CC(C)(C)C(=O)C[n+]1ccc2ccccc2c1 | 0.696 (inactive) |
| CN1/C(=C\C(=O)Cn2cc(C(F)(F)F)ccc2=O)C(C)(C)c2ccccc21 | 0.971 (inactive) |
| CN1/C(=C\C(=O)C[n+]2ccccc2)C(C)(C)c2ccccc21 | 0.777 (inactive) |
| CN1/C(=C\C(=O)Cn2nnc(-c3ccccc3)n2)C(C)(C)c2ccccc21 | 0.724 (inactive) |
| CN1/C(=C\C(=O)CN2C(=O)NC(C)(c3ccc(Cl)cc3)C2=O)C(C)(C)c2ccccc21 (stereo not given) | 0.769 (inactive) |
| CN1/C(=C\C(=O)CN2C(=O)c3ccc([N+](=O)[O-])cc3C2=O)C(C)(C)c2ccccc21 | 0.76 (inactive) |
| CN1/C(=C\C(=O)CN2C(=O)c3ccccc3S2(=O)=O)C(C)(C)c2ccccc21 | 0.733 (inactive) |
| O=C(C[n+]1ccc2ccccc2c1)c1ccc2ccccc2c1 | 0.818 (inactive) |
| Cc1cc[n+](CC(=O)/C=C2\N(C)c3ccccc3C2(C)C)cc1 | 0.738 (inactive) |
| CN1/C(=C\C(=O)Cn2c(=O)c(C#N)cn(C)c2=O)C(C)(C)c2ccccc21 | 0.739 (inactive) |
| O=C(C[n+]1ccc2ccccc2c1)c1cc2ccccc2oc1=O | 0.305 |
| CN1/C(=C\C(=O)C[n+]2cccc(-c3ccccc3)c2)C(C)(C)c2ccccc21 | 0.367 |
| CN1/C(=C\C(=O)Cn2cnc3ccc(Cl)cc3c2=O)C(C)(C)c2ccccc21 | 0.845 (inactive) |
| CN1/C(=C\C(=O)CN2C(=O)c3ccccc3C2=O)C(C)(C)c2ccccc21 | 0.859 (inactive) |
| CN1/C(=C\C(=O)CN2C(=O)C3CC=CCC3C2=O)C(C)(C)c2ccccc21 (stereo not given) | 0.473 |
| CN1/C(=C\C(=O)CN2CCc3ccccc3C2)C(C)(C)c2ccccc21 | 0.962 (inactive) |
| COC(=O)C1CCCCN1CC(=O)/C=C1/N(C)c2ccccc2C1(C)C (stereo not given) | 0.906 (inactive) |
| O=C(C[n+]1ccc2ccccc2c1)Nc1ccccc1 | 0.895 (inactive) |
| CN1/C(=C\C(=O)CN2CCCC2)C(C)(C)c2ccccc21 | 0.704 (inactive) |
| COc1ccc2oc(=O)c(C(=O)C[n+]3ccc4ccccc4c3)cc2c1 | 0.843 (inactive) |
| CN1/C(=C\C(=O)CN2C(=O)c3ccccc3CS2(=O)=O)C(C)(C)c2ccccc21 | 0.766 (inactive) |
| COc1cccc2cc(C(=O)C[n+]3ccc4ccccc4c3)c(=O)oc12 | 0.965 (inactive) |
